In article PMC8044911, “Research on the Interaction Mechanism Between α Mino-Phosphonate Derivative Q-R and Harpin-Binding Protein 1 in Tobacco (Nicotiana tabacum) Plants” (Frontiers in Microbiology, 2021):

Legend:
[1] = target: T1, HrBP1 (harpin-binding protein 1) (Nicotiana tabacum, UniProt Q5QJB2); assay: isothermal titration calorimetry
T1 construct: full-length ORF (831 bp, 276 aa) in pET28a NdeI/XhoI, E. coli BL21(DE3), HisTrap purified, tag removal not described; about 30 kDa on SDS-PAGE, oligomer about 180 kDa by SEC

[2] = target: T1, HrBP1 (harpin-binding protein 1); assay: isothermal titration calorimetry; details: pH 7.5, 25 °C, 20 mM Tris-HCl, 100 mM NaCl
[3] = target: the molecule itself; assay: SEC; Superdex 200 10/300 GL, 4°C, 20 mM Tris-HCl, 100 mM NaCl, pH 7.5; mass standards 17-440 kDa; run without and after adding the small molecule Q-R (larger oligomer with Q-R)

**Q.** For `Cc1cccc2sc(N[C@@H](c3cccs3)P(=O)(Oc3ccccc3)Oc3ccccc3)nc12` [Q-R, (R)-diphenyl-1-(4-methylbenzothiazole-2-amino)-1-(thiphene-2-yl)-methylphosphonate], which Kd [1] is on record?
**A.** 1190 nM

**Q.** With `CCOP(=O)(OCC)C(Nc1nc2c(C)cccc2s1)c1ccccc1F` (stereo not drawn) [dufulin] as the molecule, how does the isothermal titration calorimetry [2] read?
**A.** weak binding occurred between the dufulin and HrBP1 protein

B1: harpin-binding protein 1 (HrBP1) from Nicotiana tabacum (natural protein, UniProt Q5QJB2 1-276, looked up)
chain: MASLLQYSTLPLSNNHCSSSLPSLTCHLSKRSNRNTQKLLEKKKYHIKKSLICQSGIDELAFIELPGTKEAKAELIGSLKLKLLSAVSGLNRGLAASEEDLKKADAAAKELESCAGAVDLSADLDKLQGRWKLIYSSAFSGRTLGGSRPGPPTGRLLPITLGQVFQRIDVLSKDFDNIVELELGAPWPLPPAELTATLAHKFELIGSSTIKITFEKTTVKTTGILSQLPPFEVPRIPDQLRPPSNTGSGEFEVTYIDSDTRVTRGDRGELRVFVIS
notes: full-length gene of 831 bp, 276 amino acids, cloned between NdeI and XhoI of pET28a; tryptic peptides matched UniProt Q5QJB2; Removal of the tag is not described; also called HrBP1 recombinant protein; source: E. coli BL21(DE3), pET28a-HrBP1, purified (HisTrap column, desalting column, ultrafiltration)
**Q.** Does B1 bind [3]?
**A.** binds
